Reference: ChEMBL document CHEMBL4052759, “Discovery of DS79182026: A potent orally active hepcidin production inhibitor” (Bioorg Med Chem Lett, 2017)

Experiments:
HepG2 = assay: Inhibition of human recombinant BMP6-stimulated hepcidin mRNA expression in human HepG2 cells after 6 hrs by qRT-PCR analysis; format: functional, cell-based; conditions: HepG2, 6 h
[1] = AUC in C57BL/6J mouse at 30 mg/kg, po by LC-MS/MS analysis; format: ADME, organism-based; conditions: in vivo
[2] = Cmax in C57BL/6J mouse at 30 mg/kg, po by LC-MS/MS analysis; format: ADME, organism-based; design: dose 30 mg/kg, route oral; conditions: in vivo
[3] = Metabolic stability in mouse liver microsomes assessed as […] by measuring parent compound remaining at 1 uM after 0.5 hrs by LC-MS/MS analysis; format: ADME; conditions: read-out: Stability
[4] = Tmax in C57BL/6J mouse at 30 mg/kg, po by LC-MS/MS analysis; format: ADME, organism-based; conditions: in vivo

SMILES: COC(=O)Nc1noc2cc(-c3c(C4CC4)n[nH]c3C)ccc12
- IC50 (HepG2): 0.21 µM

SMILES: COC(=O)Nc1noc2cc(-c3c(-c4ccncn4)n[nH]c3C)ccc12
- IC50 (HepG2): 2.9 µM

SMILES: COC(=O)Nc1noc2cc(-c3c(-c4cnccn4)n[nH]c3C)ccc12
- IC50 (HepG2): 0.21 µM

SMILES: COC(=O)Nc1noc2cc(-c3c(C(C)O)n[nH]c3C)ccc12 (centres undefined)
- IC50 (HepG2): 1.2 µM

SMILES: COC(=O)Nc1noc2cc(-c3c(-c4cccnn4)n[nH]c3C)ccc12
- IC50 (HepG2): 0.35 µM

SMILES: COC(=O)Nc1noc2cc(-c3c(-c4cc(C)ccn4)n[nH]c3C)ccc12
- IC50 (HepG2): 2.6 µM

SMILES: COC(=O)Nc1noc2cc(-c3c(C(C)C)n[nH]c3C)ccc12
- IC50 (HepG2): 0.91 µM

SMILES: O=C1Cc2cc(-c3ccc4c(NC(=O)C5CC5)n[nH]c4c3)ccc2N1
- IC50 (HepG2): > 30 µM

SMILES: Cc1n[nH]c(C)c1-c1ccc2c(NC(=O)c3ccc(OCCN4CCCCC4)cc3)n[nH]c2c1
- IC50 (HepG2): 0.26 µM

SMILES: O=C(Nc1n[nH]c2cc(-c3ccncc3)ccc12)C1CC1
- IC50 (HepG2): 7.2 µM

SMILES: CNC(=O)c1n[nH]c(C)c1-c1ccc2c(NC(=O)OC)noc2c1
- IC50 (HepG2): 4.4 µM

SMILES: Cc1n[nH]c(C)c1-c1ccc2c(NC(=O)C3CC3)n[nH]c2c1
- IC50 (HepG2): 0.33 µM

SMILES: COC(=O)Nc1noc2cc(-c3c(C(C)(C)C)n[nH]c3C)ccc12
- IC50 (HepG2): > 10 µM

SMILES: O=C(Nc1n[nH]c2cc(-c3cnc4[nH]ccc4c3)ccc12)C1CC1
- IC50 (HepG2): 11 µM

SMILES: O=C(Nc1n[nH]c2cc(-c3ccc(O)cc3)ccc12)C1CC1
- IC50 (HepG2): 0.4 µM

SMILES: COC(=O)Nc1noc2cc(-c3c(-c4cccc(C)n4)n[nH]c3C)ccc12
- IC50 (HepG2): 0.042 µM

SMILES: Cc1[nH]nc(-c2ccccn2)c1-c1ccc2c(NC(=O)OCCF)noc2c1
- IC50 (HepG2): 0.047 µM

SMILES: COC(=O)Nc1noc2cc(-c3c(-c4cccc(OC)n4)n[nH]c3C)ccc12
- IC50 (HepG2): 0.4 µM

SMILES: CCNC(=O)Nc1noc2cc(-c3c(C4CC4)n[nH]c3C)ccc12
- IC50 (HepG2): 0.72 µM

SMILES: Cc1noc(C)c1-c1ccc2c(NC(=O)C3CC3)n[nH]c2c1
- IC50 (HepG2): 1 µM

SMILES: CCc1n[nH]c(C)c1-c1ccc2c(NC(=O)OC)noc2c1
- IC50 (HepG2): 0.46 µM

SMILES: O=C(Nc1n[nH]c2cc(-c3cc[nH]c3)ccc12)C1CC1
- IC50 (HepG2): > 30 µM

SMILES: O=C(Nc1n[nH]c2cc(-c3ccc4[nH]cnc4c3)ccc12)C1CC1
- IC50 (HepG2): > 3 µM

SMILES: COC(=O)Nc1noc2cc(-c3c(-c4ccccc4)n[nH]c3C)ccc12
- IC50 (HepG2): 0.54 µM

SMILES: COCc1n[nH]c(C)c1-c1ccc2c(NC(=O)OC)noc2c1
- IC50 (HepG2): 1.1 µM

SMILES: COC(=O)Nc1noc2cc(-c3c(C)n[nH]c3C)ccc12
- IC50 (HepG2): 0.58 µM

SMILES: COCCOC(=O)Nc1noc2cc(-c3c(-c4ccccn4)n[nH]c3C)ccc12
- IC50 (HepG2): 0.069 µM

SMILES: COC(=O)Nc1noc2cc(-c3c(-c4ncccc4C)n[nH]c3C)ccc12
- IC50 (HepG2): 4.8 µM

SMILES: O=C(Nc1n[nH]c2cc(-c3ccc(O)cc3)ccc12)c1ccc(OCCN2CCOCC2)cc1
- AUC [1]: 890 ng·h/mL
- Cmax [2]: 320 ng/mL
- remaining at 0.5 h, 1 µM [3]: 76%
- IC50 (HepG2): 0.13 µM
- Tmax [4]: 1.5 h

SMILES: Cc1[nH]nc(C2CC2)c1-c1ccc2c(NC(=O)C3CC3)n[nH]c2c1
- IC50 (HepG2): 0.082 µM

SMILES: Cc1[nH]nc(-c2ccccn2)c1-c1ccc2c(NC(=O)OC(C)C)noc2c1
- IC50 (HepG2): 0.16 µM

SMILES: COC(=O)Nc1noc2cc(-c3c(-c4cccc(C(C)C)n4)n[nH]c3C)ccc12
- IC50 (HepG2): 2.6 µM

SMILES: CCOC(=O)Nc1noc2cc(-c3c(-c4ccccn4)n[nH]c3C)ccc12
- IC50 (HepG2): 0.04 µM

SMILES: Cc1[nH]nc(C2CC2)c1-c1ccc2c(N)noc2c1
- IC50 (HepG2): 1.4 µM

SMILES: COC(=O)Nc1noc2cc(-c3c(C(=O)OC)n[nH]c3C)ccc12
- IC50 (HepG2): 2.9 µM
